From patent US10702524B2, “Use of a compound in repairing nerve injury” (priority 2017, dated 2020)
Entries after “also recorded” stand apart in the source; their conditions may differ.

Assays:
spinal cord tissues [1] = assay: HE staining of spinal cord tissues (void, inflammatory cells), rat spinal cord injury model; assay type: in vivo
Experimental: (§1) Animal models of acute spinal cord injury experiment were established by using an IMPACTOR MODEL-II spinal cord injury striking system. Sixty female Wistar rats with the age from 8 to 10 weeks and the weight from 230 to 250 g were divided into three groups with 20 rats in each group: a sham-surgery operated group, a control group (spinal cord injury group) and an experimental group, respectively. At 15 minutes before striking injury, the rats in the experimental group were injected with the compound of the formula (I) at a dose of 15 mg/kg body weight.
No spinal cord structure destroy was observed on the rats in the sham-surgery operated group. In the control group, significant changes occurred, mainly including hemorrhage, infiltration with a large number of inflammatory cells and spinal cord structural disorder, and it was observed that in grey matter, a large number of cells were lost, while in the white matter, significant swelling of neurites was observed and axonal terminals were in sphere.

oligodendrocytes = assay: CNpase immunohistochemical staining (oligodendrocyte survival), rat spinal cord injury model; assay type: in vivo
Experimental: as §1
At 48 hours and 2 weeks after injury, respectively, the three groups of spinal cord tissues were subjected to CNpase immunohistochemical staining.

NEUN(+) neuron cells = assay: NEUN immunohistochemical staining (neuron survival), rat spinal cord injury model; assay type: in vivo; settings: 48 hours and 2 weeks after injury; experimental group vs control group
Experimental: as §1
At 48 hours and 2 weeks after injury, respectively, the three groups of rat spinal cord tissues were subjected to NEUN immunohistochemical staining.

Caspase 3 = Caspase 3 expression of spinal cord tissue by Western Blot, rat spinal cord injury model; assay type: in vivo; settings: 15 mg/kg, experimental group vs control group, gray level analysis
Experimental: as §1
(§2) At 6 hours, 24 hours, 48 hours, 7 days, 14 days, 28 days and 56 days after injury, respectively, the rat spinal cord tissues were sampled for the Western Blot test and TUNEL staining, so as to test the inhibiting function of the compound of the formula (I) against the cell apoptosis at the spinal cord injury sites.

TNF-α = TNF-α expression of spinal cord tissue by Western Blot, rat spinal cord injury model; assay type: in vivo; settings: 15 mg/kg, experimental group vs control group, gray level analysis
Experimental: as §1
(§3) At 6 hours, 24 hours, 48 hours, 7 days, 14 days, and 28 days after injury, respectively, the rat spinal cord tissues were sampled for the Western Blot test, so as to test the inhibiting function of the compound of the formula (I) against the pro-inflammatory cytokines at the spinal cord injury sites.

IL-1β = IL-1β expression of spinal cord tissue by Western Blot, rat spinal cord injury model; assay type: in vivo; settings: 15 mg/kg, experimental group vs control group, gray level analysis
Experimental: as §1, §3

spinal cord tissues [2] = assay: TUNEL staining of spinal cord tissues (cell apoptosis), rat spinal cord injury model; assay type: in vivo; settings: 48 hours after injury; 15 mg/kg; difference between control group and experimental group
Experimental: as §1, §2
At 48 hours after injury, TUNEL staining was performed on three groups of spinal cord tissues. TUNEL-stained positive cells were located in the gray matter and white matter of the spinal cords, and the cell nuclei was stained brown-yellow and mostly distributed in the center of the injure and the margin thereof. […]

ICAM1 = ICAM1 expression of spinal cord tissue by Western Blot, rat spinal cord injury model; assay type: in vivo; settings: 15 mg/kg injected 15 minutes before striking injury, experimental group vs control group, gray level analysis
Experimental: as §1, §3

[3] = tested on: rats after spinal cord injury; assay: BBB score of motor function of rear limbs after spinal cord injury; assay type: in vivo, rat; settings: comparison between experimental group and control group
Experimental: as §1
Motor function of rear limbs of the tested animals were evaluated by scoring with BBB (Basso Beattie Bresnahan locomotor rating scale, BBB). The BBB scoring was one of internationally recognized objective standards regarding nerve functions of rats after spinal cord injury. In the project, the motor function of rear limbs of the rats was evaluated from 1 day before injury to 8 weeks after injury by double-blind independent observations and records with two persons and finally statistical analyses.

[4] = tested on: Glial Fibrillary Acidic Protein (GFAP); assay: GFAP frozen-section immunofluorescence (glial scar), rat spinal cord injury model; assay type: in vivo
Experimental: as §1
2. Testing Glial Fibrillary Acidic Protein (GFAP) Expression by Frozen-Section Immunofluorescence Histochemical Method
At 48 hours after injury, the spinal cord tissues were subjected to GFAP immunofluorescent staining.

CC(C)(C)OC(=O)c1ccc(NC23CC4CC(CC(C4)C2)C3)c(/N=C\c2cncnc2)c1 [compound of the formula (I)]
area of voids (HE staining) (spinal cord tissues [1]; 8 weeks after spinal cord injury, control group compared to experimental group): significantly increased as compared to that in the experimental group
inflammatory cells (HE staining, high magnification) (spinal cord tissues [1]; 8 weeks after spinal cord injury, experimental group vs control group): significantly reduced
HE staining changes (hemorrhage, inflammatory cell infiltration, spinal cord structural disorder) (spinal cord tissues [1]; 48 hours after injury, 200×, 15 mg/kg, vs control group): could significantly alleviate the above series of changes
histopathological scores (spinal cord tissues [1]; 48 hours after injury, comparison between control group and experimental group): did not have statistical significance
CNpase positive area and positive cells (oligodendrocytes; 2 weeks after injury, experimental group vs control group): had a larger positive area and more positive cells
CNpase positive area (oligodendrocytes; 48 hours after injury, vs sham-surgery operated group): did not markedly differ from that in the shame-surgery operated group
survival rate of the oligodendrocytes (oligodendrocytes; experimental group vs control group): higher than that in the control group
NEUN(+) neuron cells (NEUN(+) neuron cells): more positive cells were present in the experimental group
survival rate of neuron cells (NEUN(+) neuron cells): higher than that in the control group
Caspase 3 expression (Caspase 3; 2 weeks after injury): significantly decreased
Caspase 3 expression (Caspase 3; 48 hours after injury): significantly decreased
TNF-α expression (TNF-α; 2 weeks after injury): significantly decreased
TNF-α expression (TNF-α; 48 hours after injury): decreased, close to the level of the shame-surgery operated group
IL-1β expression (IL-1β; 2 weeks after injury): significantly decreased
IL-1β expression (IL-1β; 48 hours after injury): significantly decreased, close to the level of the shame-surgery operated group
quantity of TUNEL-stained positive cells (spinal cord tissues [2]): had a statistical significance (p<0.05)
ICAM1 expression (ICAM1; 2 weeks after injury): significantly decreased
ICAM1 expression (ICAM1; 48 hours after injury): significantly decreased
BBB score ([3]; 1 week after injury): did not have any statistical significance (p>0.05)
BBB score ([3]; 2 weeks after injury): had a statistical significance (p<0.05)
BBB score ([3]; 8 weeks after injury): had a statistical significance (p<0.01); also recorded: significantly higher than that of the control group
BBB score ([3]; 48 hours after injury): did not have any statistical significance (p>0.05)
GFAP fluorescence ([4]; 2 weeks after surgery, control group vs experimental group): control group was still stronger than the experimental group
quantity of the formed glial scars (GFAP immunofluorescent staining) ([4]; 48 hours after injury, experimental group vs control group): significantly decreased as compared to the control group
